In patent publication US7169573B2, “Method for monitoring coagulability and hypercoagulable states” (Oklahoma Medical Research Foundation, priority 2001, dated 2007):
Where “and” joins values, the source holds several entries; their conditions need not be identical. Equal values may be shown once.

Experiments:
[1] = tested on: prothrombin fragment 1+2 (F1+2)
Protocol: Blood was taken before the start of anticoagulation and sEPCR levels were determined by ELISA over the course of their therapy. There were 3 patients with atrial fibrillation and one patient each with dilative cardiomyopathy, mitral valve disease, atrial fibrillation+stroke, and deep vein thrombosis (DVT).

[2] = cited from earlier work
[3] = tested on: soluble endothelial protein C receptor (sEPCR); assay: Plasma soluble EPCR level by monoclonal antibody-based ELISA in subjects on anticoagulant therapy; type: in vivo, human; conditions: for [sEPCR]: individual patients taking Sintrom, plasma, ELISA
Protocol: Soluble EPCR is generated in vitro by metalloproteinase activity induced by thrombin and some inflammatory mediators (Xu et al., 2000). Thus, the inventors chose to determine whether soluble EPCR levels reflected in vivo thrombin generation. To evaluate this, the soluble EPCR levels were determined in patients on oral anticoagulant therapy and compared with soluble EPCR levels found in a normal, apparently healthy adult population (FIGS. 1A and 1B). These samples were obtained from collaborators in France (Dr. M. Grimeaux, Serbio/Diagnostica Stago). The soluble EPCR levels are assayed using a monoclonal antibody-based enzyme-linked immunosorbent assay (ELISA) (U.S. Pat. No. 5,804,392, incorporated by reference herein). […] Previscan is a major oral anticoagulant used in France and Germany. […] The half-life for factor VII is only 3–5 hours, whereas that for prothrombin is 60–100 hrs.
To further evaluate the relationship between plasma sEPCR levels and anticoagulant therapy, samples were obtained from a normal adult population and from patients on intravenous unfractionated heparin therapy (FIG. 3). The data shown in FIGS. 3, 4A, 4B and 5 were obtained from samples contributed by a collaborator in Italy (Dr. Armando D'Angelo, Scientific Institute H. S. Rafeale, Milan, Italy).
Plasma was stored at −80° C. for determination of sEPCR levels by ELISA.

[4] = cited from earlier work; remark: listed apart in the source
INR = INR (prothrombin time based) in patients on oral anticoagulant; type: in vivo, human; conditions: individual patients taking Sintrom, one plasma sample per line

Question: Which “F1+2 level, % of initial values” ([1]; healthy subjects, day 5 of Warfarin, P<0.05) does the source give for 4-hydroxycoumarin [Warfarin] here?
Answer: 39%

Question: And the “F1+2 levels after initiation of Warfarin therapy” value ([1]; seven patients starting oral anticoagulation, FIG. 7)?
Answer: declined in most of the patients

Question: What about the “intracranial bleeding, share of patients” value ([2]; during each year of therapy) of the same compound?
Answer: 0.1–0.5%

Question: What about the “major bleeding, share of people treated” value ([2]; during each year of therapy) of the same compound?
Answer: 1–8%

Question: What about the “Warfarin-induced skin necrosis, share of patients” value ([2]; in vivo) of the same compound?
Answer: 0.01–0.1%

Question: And the “plasma sEPCR levels during Warfarin treatment period” value ([3]; 6 normal adult subjects, Warfarin 7 days, FIG. 4A)?
Answer: declined

Question: And the “lag time before sEPCR levels declined after initiation of Warfarin” value ([3]; normal adult subjects)?
Answer: 24 to 48 h

Question: What about the “time after cessation of Warfarin until sEPCR levels began to increase” value ([3]; normal adult subjects) of the same compound?
Answer: 24 to 48 h

Question: What about the “time to maximal blood levels” value ([4]; healthy volunteers, absorbed from the GI tract) of the same compound?
Answer: 90 min

Question: And the bioavailability ([4]; in vivo)?
Answer: excellent

Question: And the onset ([4]; in vivo)?
Answer: 2 to 7 days

Question: For `O=C1c2ccccc2C(=O)C1c1ccc(F)cc1` [Previscan], which “half-life (in words)” value ([4]; in vivo) is on record?
Answer: long half-life (days)

Question: Which “[sEPCR]” value [3] does the source give for `CC(=O)CC(c1ccc([N+](=O)[O-])cc1)c1c(O)c2ccccc2oc1=O` (centres unmarked) [Sintrom] here?
Answer: 369 ng/mL and 357 ng/mL and 198 ng/mL and 293 ng/mL

Question: And the “[sEPCR]” value ([3]; listed as SINTROM)?
Answer: 357 ng/ml and 131 ng/ml and 92 ng/ml and 127 ng/ml and 59 ng/ml and 61 ng/ml (2×) and 198 ng/ml and 171 ng/ml and 164 ng/ml and 56 ng/ml (2×) and 293 ng/ml and 172 ng/ml and 54 ng/ml and 94 ng/ml and 140 ng/ml and 135 ng/ml and 167 ng/ml and 369 ng/ml and 63 ng/ml

Question: What about the half-life ([4]; Sintrom) of the same compound?
Answer: ~8.5 h

Question: What about the INR (INR) of the same compound?
Answer: 2.0 and 2.6 and 3.3 and 3.6

Question: And the INR (INR; listed as SINTROM)?
Answer: 2.6 (2×) and 2.7 (2×) and 2.8 and 3.1 (2×) and 3.3 (2×) and 3.4 and 3.5 and 3.6 and 4.5 and >5.0 (4×) and 1.5 and 1.8 and 1.9 and 2.0
